Test results: US20230391826A1, “COMPOSITIONS AND METHODS FOR TREATING DISEASES” (Sanford Burnham Prebys Medical Discovery Institute, priority 2020, published 2023)
≈ marks a conversion by molar mass, not a printed value. Read-outs that look alike come from different tables or passages of the source. Where a SMILES comes first, the peptide text is derived from it. Bridges are numbered along the chain shown (N, C = ends). Roman numbers before positions name the chains, in order. [ ]: non-standard residue; d: D form. βAla = NCCC(=O)O

Tests used:
[1] = target: T1, EphA2 extracellular domain fused to Fc (EphA2-Fc) (Homo sapiens, UniProt P29317); test: ELISA: inhibition of ephrinA5-AP binding to immobilized EphA2-Fc
T1 construct: immobilized EphA2 extracellular domain fused to the Fc portion of an antibody (EphA2-Fc)
T1 sequence (P29317 24-537 limits assumed): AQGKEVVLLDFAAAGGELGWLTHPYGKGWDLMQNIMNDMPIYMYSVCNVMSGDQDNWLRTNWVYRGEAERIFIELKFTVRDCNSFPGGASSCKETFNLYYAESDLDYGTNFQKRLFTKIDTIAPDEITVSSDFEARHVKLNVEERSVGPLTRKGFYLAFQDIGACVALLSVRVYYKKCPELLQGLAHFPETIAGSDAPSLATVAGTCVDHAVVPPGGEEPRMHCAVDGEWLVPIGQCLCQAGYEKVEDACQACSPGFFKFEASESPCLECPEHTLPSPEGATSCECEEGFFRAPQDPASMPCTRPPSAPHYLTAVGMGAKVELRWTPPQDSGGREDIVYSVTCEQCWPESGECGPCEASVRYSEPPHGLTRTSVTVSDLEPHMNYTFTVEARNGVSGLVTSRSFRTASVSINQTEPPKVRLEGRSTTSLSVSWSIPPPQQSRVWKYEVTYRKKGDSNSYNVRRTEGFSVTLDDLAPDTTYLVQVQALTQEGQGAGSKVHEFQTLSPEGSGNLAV
From the text: FIG. 1A-1C illustrates an example of Potency and selectivity of EphA2-targeting dimeric peptides. (FIG. 1A) ELISAs comparing the ability of the peptides to inhibit binding of ephrin-A5 fused to alkaline phosphatase (ephrinA5-AP) to the immobilized EphA2 extracellular domain fused to the Fc portion of an antibody (EphA2-Fc). The graphs show averages ±SD from triplicate measurements from a representative experiment. IC50 values calculated from the fitted curves in each experiment are shown. Averages of IC50 values obtained from multiple experiments are shown in panel FIG. 1B and Table 3. The 10 nM peptide concentration is outlined in red. (FIG. 1B) Plot of the average IC50 values (listed in Table 3) for different ligands. […] (FIG. 1C) EphrinA5-AP binding to EphA receptors and ephrinB2-AP binding to EphB receptors in the presence of dimeric peptides representing each of the three configurations. Values are normalized to ephrin binding without peptide. The graphs show averages and SDs from triplicate measurements (with each measurement shown as a dot).

[2] = Peptide solubility in PBS/H2O/DMSO; format: physicochemical
Method: Peptide identity and purity are documented by mass spectrometry and high-performance liquid chromatography (HPLC). The peptide solubility values are determined. Concentrated peptide stocks are prepared in DMSO or H2O and stored frozen at −80° C.

EphA2 LBD = target: T2, EphA2 LBD (Homo sapiens, UniProt P29317); test: Isothermal titration calorimetry (ITC) with soluble EphA2 LBD; format: binding
T2 construct: made in house; host or cells: E. coli Origami 2(DE3)
T2 sequence (P29317 28-200): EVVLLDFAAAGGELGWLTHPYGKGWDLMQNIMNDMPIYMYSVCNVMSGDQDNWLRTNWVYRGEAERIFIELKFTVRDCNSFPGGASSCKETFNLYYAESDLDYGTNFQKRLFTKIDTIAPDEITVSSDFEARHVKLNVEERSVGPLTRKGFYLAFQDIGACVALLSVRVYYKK
Method: (FIG. 10A-10E) The EphA2 LBD was titrated at 200-250 μM into 10-12.5 μM of the indicated peptide.
For ITC, all peptides are dissolved in DMSO and both the EphA2 LBD and the peptides are diluted to obtain a final buffer containing 9.5 mM HEPES, pH 7.9, 95 mM NaCl, and 5% DMSO. The experiments are carried out at 296 K (23° C.) using an ITC200 calorimeter (Microcal). Two-microliter aliquots of a peptide solution are injected into the cell containing 205 μL EphA2 LBD. 200-400 μM peptides are titrated into 20-40 μM EphA2 LBD. Experimental data are analyzed using the Origin software package (Microcal). The integrated values for the reaction heats are normalized to the amount of injected peptide after blank subtraction.

EphA2 = EphA2 (Homo sapiens, UniProt P29317); test: EphA2 autophosphorylation on tyrosine 588 in PC3 cells (immunoblot dose-response); format: cell-based; set-up: EphA2 is the prevalent endogenously expressed EphA receptor in these cells; endogenous in cells; host or cells: PC3 prostate cancer cells; settings: read-out: EC50 PY588
Sequence of EphA2 (P29317 24-976): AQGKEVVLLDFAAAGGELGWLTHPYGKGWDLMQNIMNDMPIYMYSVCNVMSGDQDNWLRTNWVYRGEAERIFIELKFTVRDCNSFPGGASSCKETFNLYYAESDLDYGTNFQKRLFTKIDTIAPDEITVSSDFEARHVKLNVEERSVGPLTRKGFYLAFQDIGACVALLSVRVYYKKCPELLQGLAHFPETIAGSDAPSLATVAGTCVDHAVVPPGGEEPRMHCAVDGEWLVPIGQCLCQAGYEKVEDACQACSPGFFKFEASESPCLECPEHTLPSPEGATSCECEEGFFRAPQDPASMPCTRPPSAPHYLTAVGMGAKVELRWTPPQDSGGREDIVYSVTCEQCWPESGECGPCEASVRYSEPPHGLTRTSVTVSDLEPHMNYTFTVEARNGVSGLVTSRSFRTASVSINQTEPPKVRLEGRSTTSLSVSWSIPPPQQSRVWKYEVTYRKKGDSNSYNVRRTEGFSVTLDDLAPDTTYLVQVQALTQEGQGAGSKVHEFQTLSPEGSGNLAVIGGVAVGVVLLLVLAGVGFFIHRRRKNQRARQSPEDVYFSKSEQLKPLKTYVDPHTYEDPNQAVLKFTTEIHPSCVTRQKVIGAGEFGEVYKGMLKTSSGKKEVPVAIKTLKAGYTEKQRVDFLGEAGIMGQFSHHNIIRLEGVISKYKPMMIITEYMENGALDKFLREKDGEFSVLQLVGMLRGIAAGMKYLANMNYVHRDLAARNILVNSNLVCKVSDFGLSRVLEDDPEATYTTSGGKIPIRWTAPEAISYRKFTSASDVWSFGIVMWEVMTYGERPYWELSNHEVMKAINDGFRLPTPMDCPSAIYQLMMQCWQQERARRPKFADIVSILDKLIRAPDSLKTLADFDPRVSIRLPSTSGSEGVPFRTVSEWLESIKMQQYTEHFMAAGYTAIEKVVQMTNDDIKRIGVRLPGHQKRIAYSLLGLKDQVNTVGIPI
Method: (FIG. 2A) Dose-response curves for EphA2 autophosphorylation on tyrosine 588 (pY588; purple) and for downstream inhibition of AKT phosphorylation (magenta). PC3 cells were treated for 15 min with different concentrations of the indicated peptides. […] The graphs show quantifications from multiple blots (averages ±SE; the number of experiments used to generate each curve is shown in Table 3). […] (FIG. 2B) Examples of immunoblots of lysates from PC3 cells treated with the indicated concentrations of representative ligands. […] A white vertical line indicates removal of irrelevant lanes. […] The bars show averages ±SE, and the individual measurements are shown as black dots. […] Plots of Etop versus EC50 for pY588 in FIG. 2D and for pAKT inh in FIG. 2E. Averages ±SE are shown for the peptides and ephrinA1.
To examine the agonistic properties of the different dimeric peptide ligands, EphA2 autophosphorylation on tyrosine 588 (Y588) was measured, which is indicative of receptor activation and mediates binding of SH2 domain-containing proteins that link EphA2 to various downstream signaling pathways (FIG. 7). For these experiments, PC3 prostate cancer cells were stimulated with the dimeric peptides because EphA2 is the prevalent endogenously expressed EphA receptor in these cells, allowing comparisons with ephrins.

[3] = Table 3, inhibition of EphA2-ephrinA5 interaction, averages ± SD, read-out: ICsa (nM) by ELISA
[4] = DMSO, Table 4, third of PBS/H20/DMSO, read-out: Solubility in DMSO
[5] = H2O, Table 4, second of PBS/H20/DMSO, read-out: Solubility in H20
[6] = PBS, Table 4, first of PBS/H20/DMSO, read-out: Solubility in PBS
[7] = DMSO, third of PBS/H2O/DMSO, read-out: Solubility in DMSO
[8] = H2O, second of PBS/H2O/DMSO, read-out: Solubility in H2O
[9] = PBS, first of PBS/H2O/DMSO, read-out: Solubility in PBS

Row | Compound | IC50 [1, 3] [nM] | solubility [2, 4] [µg/mL] | solubility [2, 5] [µg/mL] | solubility [2, 6] [µg/mL] | IC50 ([1]; inhibition of ephrin-A5 binding to EphA2, number of experiments in parentheses, read-out: Inc50 (nM) by ELISA) [nM] | Kd (EphA2 LBD) [nM] | solubility [2, 7] [µg/mL] | solubility [2, 8] [µg/mL] | solubility [2, 9] [µg/mL] | solubility ([2]; water, Table 4, second of PBS/H20/DMSO, read-out: Solubility in H20) [µg/mL] | EC50 (EphA2) [nM] | ICsa (nM) by ELISA ([1]; Table 3, inhibition of EphA2-ephrinA5 interaction, averages ± SD) | binding to the EphA2 LBD by ITC (EphA2 LBD; high biotin concentration (1 mM))
1 | CC(C)C[C@H](NC(=O)[C@H](Cc1c[nH]c2ccccc12)NC(=O)[C@H](C)NC(=O)CNC(=O)[C@@H](N)CSSC[C@H](N)C(=O)NCC(=O)N[C@@H](C)C(=O)N[C@@H](Cc1c[nH]c2ccccc12)C(=O)N[C@@H](CC(C)C)C(=O)N[C@@H](C)C(=O)N[C@@H](Cc1ccc(O)cc1)C(=O)N1CCC[C@H]1C(=O)N[C@@H](CC(=O)O)C(=O)N[C@@H](CO)C(=O)N[C@H](C(=O)N1CCC[C@H]1C(=O)N[C@@H](Cc1ccc(O)cc1)C(=O)N[C@@H](CCCNC(=N)N)C(=O)O)C(C)C)C(=O)N[C@@H](C)C(=O)N[C@@H](Cc1ccc(O)cc1)C(=O)N1CCC[C@H]1C(=O)N[C@@H](CC(=O)O)C(=O)N[C@@H](CO)C(=O)N[C@H](C(=O)N1CCC[C@H]1C(=O)N[C@@H](Cc1ccc(O)cc1)C(=O)N[C@@H](CCCNC(=N)N)C(=O)O)C(C)C [compound 4] (I: H-CGAWLAYPDSVPYR-OH / II: H-CGAWLAYPDSVPYR-OH; disulfide I:1-II:1; C-terminus assumed) |  | 10000 (≈ 3130 µM) |  | < 100 | 7.9 ± 1.9 | 104 ± 1 | 10000 (≈ 3130 µM) | < 100 | < 100 | < 100 |  |  | 
2 | O=C(O)CCCC[C@@H]1SC[C@@H]2NC(=O)N[C@@H]21 [free biotin, biotin, reference compound] |  |  |  |  |  |  |  |  |  |  |  |  | did not detect binding

More lines, main results first:

Row | IC50 [1, 3] [nM] | solubility [2, 4] [µg/mL] | solubility [2, 5] [µg/mL] | solubility [2, 6] [µg/mL] | IC50 ([1]; inhibition of ephrin-A5 binding to EphA2, number of experiments in parentheses, read-out: Inc50 (nM) by ELISA) [nM] | Kd (EphA2 LBD) [nM] | solubility [2, 7] [µg/mL] | solubility [2, 8] [µg/mL] | solubility [2, 9] [µg/mL] | solubility ([2]; water, Table 4, second of PBS/H20/DMSO, read-out: Solubility in H20) [µg/mL] | EC50 (EphA2) [nM] | ICsa (nM) by ELISA ([1]; Table 3, inhibition of EphA2-ephrinA5 interaction, averages ± SD) | Compound | binding to the EphA2 LBD by ITC (EphA2 LBD; high biotin concentration (1 mM))
3 | 0.77 | 10000 (≈ 2910 µM) | 5000 (≈ 1460 µM) | < 100 |  |  |  |  |  |  |  |  | CC(C)C[C@H](NC(=O)[C@H](Cc1c[nH]c2ccccc12)NC(=O)CCN)C(=O)N[C@@H](C)C(=O)N[C@@H](Cc1ccc(O)cc1)C(=O)N1CCC[C@H]1C(=O)N[C@@H](CC(=O)O)C(=O)N[C@@H](CO)C(=O)N[C@H](C(=O)N1CCC[C@H]1C(=O)N[C@@H](Cc1ccc(O)cc1)C(=O)N[C@@H](CCCNC(=N)N)C(=O)N1CCC[C@H]1C(=O)N[C@@H](CCCCN)C(=O)NCCCC[C@H](NC(=O)[C@H](CCCCN)NC(=O)[C@@H]1CCCN1C(=O)[C@H](CCCNC(=N)N)NC(=O)[C@H](Cc1ccc(O)cc1)NC(=O)[C@@H]1CCCN1C(=O)[C@@H](NC(=O)[C@H](CO)NC(=O)[C@H](CC(=O)O)NC(=O)[C@@H]1CCCN1C(=O)[C@H](Cc1ccc(O)cc1)NC(=O)[C@H](C)NC(=O)[C@H](CC(C)C)NC(=O)[C@H](Cc1c[nH]c2ccccc12)NC(=O)CCN)C(C)C)C(=O)O)C(C)C [compound 3] | 
4 | 0.54 |  | 5000 (≈ 1380 µM) | 1000 (≈ 275 µM) |  |  | 10000 (≈ 2750 µM) | 5000 (≈ 1380 µM) | < 100 |  | 0.22 ± 0.04 |  | CC(C)C[C@H](NC(=O)[C@H](Cc1c[nH]c2ccccc12)NC(=O)[C@H](C)NC(=O)CNC(=O)[C@@H](N)Cc1cn(CCCC[C@H](N)C(=O)N[C@@H](C)C(=O)N[C@@H](Cc2c[nH]c3ccccc23)C(=O)N[C@@H](CC(C)C)C(=O)N[C@@H](C)C(=O)N[C@@H](Cc2ccc(O)cc2)C(=O)N2CCC[C@H]2C(=O)N[C@@H](CC(=O)O)C(=O)N[C@@H](CO)C(=O)N[C@H](C(=O)N2CCC[C@H]2C(=O)N[C@@H](Cc2ccc(O)cc2)C(=O)N[C@@H](CCCNC(=N)N)C(=O)N2CCC[C@H]2C(=O)N[C@@H](CCCCN)C(N)=O)C(C)C)nn1)C(=O)N[C@@H](C)C(=O)N[C@@H](Cc1ccc(O)cc1)C(=O)N1CCC[C@H]1C(=O)N[C@@H](CC(=O)O)C(=O)N[C@@H](CO)C(=O)N[C@H](C(=O)N1CCC[C@H]1C(=O)N[C@@H](Cc1ccc(O)cc1)C(=O)N[C@@H](CCCNC(=N)N)C(=O)N1CCC[C@H]1C(=O)N[C@@H](CCCCN)C(N)=O)C(C)C [compound 7] | 
5 |  |  | 5000 (≈ 1460 µM) |  |  |  | 10000 (≈ 2920 µM) | 5000 (≈ 1460 µM) | 1000 (≈ 292 µM) |  |  | subnanomolar | CC(C)C[C@H](NC(=O)[C@H](Cc1c[nH]c2ccccc12)NC(=O)CCN)C(=O)N[C@@H](C)C(=O)N[C@@H](Cc1ccc(O)cc1)C(=O)N1CCC[C@H]1C(=O)N[C@@H](CC(=O)O)C(=O)N[C@@H](CO)C(=O)N[C@H](C(=O)N1CCC[C@H]1C(=O)N[C@@H](Cc1ccc(O)cc1)C(=O)N[C@@H](CCCNC(=N)N)C(=O)N1CCC[C@H]1C(=O)N[C@@H](CCCCN)C(=O)NCC(=O)NCC(=O)N[C@@H](C)C(=O)N[C@@H](Cc1c[nH]c2ccccc12)C(=O)N[C@@H](CC(C)C)C(=O)N[C@@H](C)C(=O)N[C@@H](Cc1ccc(O)cc1)C(=O)N1CCC[C@H]1C(=O)N[C@@H](CC(=O)O)C(=O)N[C@@H](CO)C(=O)N[C@H](C(=O)N1CCC[C@H]1C(=O)N[C@@H](Cc1ccc(O)cc1)C(=O)N[C@@H](CCCNC(=N)N)C(=O)N1CCC[C@H]1C(=O)N[C@@H](CCCCN)C(N)=O)C(C)C)C(C)C [compound 8, linear dimer (head-to-tail)] (H-[βAla]WLAYPDSVPYRPKGGAWLAYPDSVPYRPK-NH2; N-terminus assumed) | 
